Measurements taken from patent publication US8404643B2, “Metastin derivatives and use thereof” (priority 2005, dated 2013).
Square brackets hold non-standard residues; d marks the D form. Peptide text beside a SMILES is read from it. * marks the point of attachment. Phe(4-Cl) = N[C@@H](Cc1ccc(Cl)cc1)C(=O)O; Pro(4S-NH2) = N[C@@H]1CN[C@H](C(=O)O)C1; Phe(3-F) = N[C@@H](Cc1cccc(F)c1)C(=O)O; Phe(2-F) = N[C@@H](Cc1ccccc1F)C(=O)O; Arg(Me) = CNC(=N)NCCC[C@H](N)C(=O)O; His(π-Me) = Cn1cncc1C[C@H](N)C(=O)O; Hyp = O=C(O)[C@@H]1C[C@@H](O)CN1; dNMeF = CN[C@H](Cc1ccccc1)C(=O)O; Orn = NCCC[C@H](N)C(=O)O; Aib = CC(C)(N)C(=O)O; Glycolyl = O=C(CO)*; Bn = c1ccc(C*)cc1; azaGly = NNC(=O)O

Target: T1, hOT7T175 (Homo sapiens, UniProt Q969F8)
T1 construct: expressed in transfected cells
T1 sequence (Q969F8 whole entry L364H): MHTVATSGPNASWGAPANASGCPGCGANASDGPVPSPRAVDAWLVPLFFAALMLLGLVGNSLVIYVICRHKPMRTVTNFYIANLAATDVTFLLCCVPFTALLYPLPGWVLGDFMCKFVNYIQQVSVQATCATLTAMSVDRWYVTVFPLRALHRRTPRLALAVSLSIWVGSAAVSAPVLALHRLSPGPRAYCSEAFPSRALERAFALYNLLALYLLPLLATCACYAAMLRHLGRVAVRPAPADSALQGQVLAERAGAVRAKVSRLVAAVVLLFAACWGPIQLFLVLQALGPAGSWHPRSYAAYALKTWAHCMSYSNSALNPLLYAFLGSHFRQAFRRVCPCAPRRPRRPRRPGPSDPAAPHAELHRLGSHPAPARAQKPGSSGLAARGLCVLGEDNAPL
Experiment: Assay for intracellular Ca ion level-increasing activity using FLIPR
Assay type: cell-based
Conditions: hOT7T175/CHO cells, relative to Metastin (1-54)
How it was run: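 CHO/dhfr− cells stably transfected with hOT7T175, selected for high metastin response, loaded with Fluo3-AM for 1 h at 37 °C in HANKS/HBSS (pH 7.4) with probenecid. Peptides were diluted from 1×10^−3 M DMSO stock into HANKS/HBSS with 2.5 mM probenecid, 0.2% BSA, 0.1% CHAPS; intracellular Ca rise read by FLIPR.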

| SMILES | Specific Activity: intracellular Ca ion level-increasing activity [specific activity to Metastin (1-54)] |
| --- | --- |
| CNC(=N)NCCC[C@H](NC(=O)[C@H](CC(C)C)NC(=O)NNC(=O)[C@H](Cc1ccccc1F)NC(=O)[C@@H](NC(=O)[C@H](CC(N)=O)NC(=O)[C@H](Cc1c[nH]c2ccccc12)NC(=O)[C@@H](Cc1ccc(O)cc1)NC(C)=O)[C@@H](C)O)C(=O)N[C@@H](Cc1c[nH]c2ccccc12)C(N)=O [Compound No. 764, Ac-D-Tyr-Trp-Asn-Thr-Phe(2F)-AzaGly-Leu-Arg(Me)-Trp-NH2] (Ac-[dY]WNT[Phe(2-F)][azaGly]L[Arg(Me)]W-NH2) | 1.5 |
| CNC(=N)NCCC[C@H](NC(=O)[C@H](CC(C)C)NC(=O)NNC(=O)[C@H](Cc1cccc(F)c1)NC(=O)[C@@H](NC(=O)[C@H](CC(N)=O)NC(=O)[C@@H]1C[C@@H](O)CN1C(=O)[C@@H](Cc1ccc(O)cc1)NC(C)=O)[C@@H](C)O)C(=O)N[C@@H](Cc1c[nH]c2ccccc12)C(N)=O [Compound No. 765, Ac-D-Tyr-Hyp-Asn-Thr-Phe(3F)-AzaGly-Leu-Arg(Me)-Trp-NH2] (Ac-[dY][Hyp]NT[Phe(3-F)][azaGly]L[Arg(Me)]W-NH2) | 2.6 |
| CNC(=N)NCCC[C@H](NC(=O)[C@H](CC(C)C)NC(=O)NNC(=O)[C@H](Cc1cccc(F)c1)NC(=O)[C@@H](NC(=O)[C@H](CC(N)=O)NC(=O)[C@H](Cc1c[nH]c2ccccc12)NC(=O)[C@@H](Cc1ccc(O)cc1)NC(C)=O)[C@@H](C)O)C(=O)N[C@@H](Cc1c[nH]c2ccccc12)C(N)=O [Compound No. 766, Ac-D-Tyr-Trp-Asn-Thr-Phe(3F)-AzaGly-Leu-Arg(Me)-Trp-NH2] (Ac-[dY]WNT[Phe(3-F)][azaGly]L[Arg(Me)]W-NH2) | 0.2 |
| CNC(=N)NCCC[C@H](NC(=O)[C@H](CC(C)C)NC(=O)NNC(=O)[C@H](Cc1ccc(Cl)cc1)NC(=O)[C@@H](NC(=O)[C@H](CC(N)=O)NC(=O)[C@@H]1C[C@@H](O)CN1C(=O)[C@@H](Cc1ccc(O)cc1)NC(C)=O)[C@@H](C)O)C(=O)N[C@@H](Cc1c[nH]c2ccccc12)C(N)=O [Compound No. 767, Ac-D-Tyr-Hyp-Asn-Thr-Phe(4Cl)-AzaGly-Leu-Arg(Me)-Trp-NH2] (Ac-[dY][Hyp]NT[Phe(4-Cl)][azaGly]L[Arg(Me)]W-NH2) | 1.5 |
| CNC(=N)NCCC[C@H](NC(=O)[C@H](CC(C)C)NC(=O)NNC(=O)[C@H](Cc1ccc(Cl)cc1)NC(=O)[C@@H](NC(=O)[C@H](CC(N)=O)NC(=O)[C@H](Cc1c[nH]c2ccccc12)NC(=O)[C@@H](Cc1ccc(O)cc1)NC(C)=O)[C@@H](C)O)C(=O)N[C@@H](Cc1c[nH]c2ccccc12)C(N)=O [Compound No. 768, Ac-D-Tyr-Trp-Asn-Thr-Phe(4Cl)-AzaGly-Leu-Arg(Me)-Trp-NH2] (Ac-[dY]WNT[Phe(4-Cl)][azaGly]L[Arg(Me)]W-NH2) | 0.6 |
| CNC(=N)NCCC[C@H](NC(=O)[C@H](CC(C)C)NC(=O)NNC(=O)[C@H](Cc1ccc(Cl)cc1)NC(=O)[C@@H](NC(=O)[C@H](CC(N)=O)NC(=O)CNC(=O)[C@@H](Cc1ccc(O)cc1)NC(C)=O)[C@@H](C)O)C(=O)N[C@@H](Cc1c[nH]c2ccccc12)C(N)=O [Compound No. 769, Ac-D-Tyr-Gly-Asn-Thr-Phe(4Cl)-AzaGly-Leu-Arg(Me)-Trp-NH2] (Ac-[dY]GNT[Phe(4-Cl)][azaGly]L[Arg(Me)]W-NH2) | 1.5 |
| CNC(=N)NCCC[C@H](NC(=O)[C@H](CC(C)C)NC(=O)NNC(=O)[C@H](Cc1ccc(Cl)cc1)NC(=O)[C@@H](NC(=O)[C@H](CC(N)=O)NC(=O)C(C)(C)NC(=O)[C@@H](Cc1ccc(O)cc1)NC(C)=O)[C@@H](C)O)C(=O)N[C@@H](Cc1c[nH]c2ccccc12)C(N)=O [Compound No. 770, Ac-D-Tyr-Aib-Asn-Thr-Phe(4Cl)-AzaGly-Leu-Arg(Me)-Trp-NH2] (Ac-[dY][Aib]NT[Phe(4-Cl)][azaGly]L[Arg(Me)]W-NH2) | 2.6 |
| CNC(=N)NCCC[C@H](NC(=O)[C@H](CC(C)C)NC(=O)NNC(=O)[C@H](Cc1ccccc1)NC(=O)[C@@H](NC(=O)[C@H](CC(N)=O)NC(=O)[C@H](CCCN)NC(=O)[C@@H](Cc1ccc(O)cc1)NC(C)=O)[C@@H](C)O)C(=O)N[C@@H](Cc1c[nH]c2ccccc12)C(N)=O [Compound No. 771, Ac-D-Tyr-Orn-Asn-Thr-Phe-AzaGly-Leu-Arg(Me)-Trp-NH2] (Ac-[dY][Orn]NTF[azaGly]L[Arg(Me)]W-NH2) | 1.9 |
| CNC(=N)NCCC[C@H](NC(=O)[C@H](CC(C)C)NC(=O)NNC(=O)[C@H](Cc1ccccc1)NC(=O)[C@@H](NC(=O)[C@H](CC(N)=O)NC(=O)[C@@H](NC(=O)[C@@H](Cc1ccc(O)cc1)NC(C)=O)[C@@H](C)O)[C@@H](C)O)C(=O)N[C@@H](Cc1c[nH]c2ccccc12)C(N)=O [Compound No. 772, Ac-D-Tyr-Thr-Asn-Thr-Phe-AzaGly-Leu-Arg(Me)-Trp-NH2] (Ac-[dY]TNTF[azaGly]L[Arg(Me)]W-NH2) | 1.3 |
| CNC(=N)NCCC[C@H](NC(=O)[C@H](CC(C)C)NC(=O)NNC(=O)[C@H](Cc1ccccc1)NC(=O)[C@@H](NC(=O)[C@H](CC(N)=O)NC(=O)[C@H](Cc1cncn1C)NC(=O)[C@@H](Cc1ccc(O)cc1)NC(C)=O)[C@@H](C)O)C(=O)N[C@@H](Cc1c[nH]c2ccccc12)C(N)=O [Compound No. 773, Ac-D-Tyr-His(3Me)-Asn-Thr-Phe-AzaGly-Leu-Arg(Me)-Trp-NH2] (Ac-[dY][His(π-Me)]NTF[azaGly]L[Arg(Me)]W-NH2) | 1.1 |
| CNC(=N)NCCC[C@H](NC(=O)[C@H](CC(C)C)NC(=O)NNC(=O)[C@H](Cc1ccccc1)NC(=O)[C@@H](NC(=O)[C@H](CC(N)=O)NC(=O)[C@@H]1C[C@@H](O)CN1C(=O)[C@@H](Cc1ccc(O)cc1)NC(=O)CO)[C@@H](C)O)C(=O)N[C@@H](Cc1c[nH]c2ccccc12)C(N)=O [Compound No. 776, Glycoloyl-D-Tyr-Hyp-Asn-Thr-Phe-AzaGly-Leu-Arg(Me)-Trp-NH2] (Glycolyl-[dY][Hyp]NTF[azaGly]L[Arg(Me)]W-NH2) | 1.5 |
| CNC(=N)NCCC[C@H](NC(=O)[C@H](CC(C)C)NC(=O)NNC(=O)[C@H](Cc1ccccc1)NC(=O)[C@@H](NC(=O)[C@H](CC(N)=O)NC(=O)[C@@H](Cc1ccc(O)cc1)NC(C)=O)[C@@H](C)O)C(=O)N[C@@H](Cc1c[nH]c2ccccc12)C(N)=O [Compound No. 777, Ac-D-Tyr-Asn-Thr-Phe-AzaGly-Leu-Arg(Me)-Trp-NH2] (Ac-[dY]NTF[azaGly]L[Arg(Me)]W-NH2) | 1.8 |
| CNC(=N)NCCC[C@H](NC(=O)[C@H](CC(C)C)NC(=O)NNC(=O)[C@H](Cc1ccccc1)NC(=O)[C@@H](NC(=O)[C@H](CC(N)=O)NC(=O)[C@@H]1C[C@H](N)CN1C(=O)[C@@H](Cc1ccc(O)cc1)NC(C)=O)[C@@H](C)O)C(=O)N[C@@H](Cc1c[nH]c2ccccc12)C(N)=O [Compound No. 780, Ac-D-Tyr-Pro(4NH2)-Asn-Thr-Phe-AzaGly-Leu-Arg(Me)-Trp-NH2] (Ac-[dY][Pro(4S-NH2)]NTF[azaGly]L[Arg(Me)]W-NH2) | 2.1 |
| CNC(=N)NCCC[C@H](NC(=O)[C@H](CC(C)C)NC(=O)NNC(=O)[C@H](Cc1ccccc1)NC(=O)[C@@H](NC(=O)[C@H](CC(N)=O)NC(=O)[C@@H]1C[C@@H](OCc2ccccc2)CN1C(=O)[C@@H](Cc1ccc(O)cc1)NC(C)=O)[C@@H](C)O)C(=O)N[C@@H](Cc1c[nH]c2ccccc12)C(N)=O [Compound No. 781, Ac-D-Tyr-Hyp(Bzl)-Asn-Thr-Phe-AzaGly-Leu-Arg(Me)-Trp-NH2] (Ac-[dY][Hyp](Bn)NTF[azaGly]L[Arg(Me)]W-NH2) | 1.0 |
| CNC(=N)NCCC[C@H](NC(=O)[C@H](CC(C)C)NC(=O)NNC(=O)[C@H](Cc1ccccc1)NC(=O)[C@@H](NC(=O)[C@H](CC(N)=O)NC(=O)[C@@H](Cc1ccccc1)N(C)C(=O)[C@@H](Cc1ccc(O)cc1)NC(C)=O)[C@@H](C)O)C(=O)N[C@@H](Cc1c[nH]c2ccccc12)C(N)=O [Compound No. 782, Ac-D-Tyr-D-NMePhe-Asn-Thr-Phe-AzaGly-Leu-Arg(Me)-Trp-NH2] (Ac-[dY][dNMeF]NTF[azaGly]L[Arg(Me)]W-NH2) | 1.8 |
| CNC(=N)NCCC[C@H](NC(=O)[C@H](CC(C)C)NC(=O)NNC(=O)[C@H](Cc1ccccc1F)NC(=O)[C@@H](NC(=O)[C@H](CC(N)=O)NC(=O)CNC(=O)[C@@H](Cc1ccc(O)cc1)NC(C)=O)[C@@H](C)O)C(=O)N[C@@H](Cc1c[nH]c2ccccc12)C(N)=O [Compound No. 783, Ac-D-Tyr-Gly-Asn-Thr-Phe(2F)-AzaGly-Leu-Arg(Me)-Trp-NH2] (Ac-[dY]GNT[Phe(2-F)][azaGly]L[Arg(Me)]W-NH2) | 8.8 |
| CNC(=N)NCCC[C@H](NC(=O)[C@H](CC(C)C)NC(=O)NNC(=O)[C@H](Cc1ccccc1F)NC(=O)[C@@H](NC(=O)[C@H](CC(N)=O)NC(=O)C(C)(C)NC(=O)[C@@H](Cc1ccc(O)cc1)NC(C)=O)[C@@H](C)O)C(=O)N[C@@H](Cc1c[nH]c2ccccc12)C(N)=O [Compound No. 784, Ac-D-Tyr-Aib-Asn-Thr-Phe(2F)-AzaGly-Leu-Arg(Me)-Trp-NH2] (Ac-[dY][Aib]NT[Phe(2-F)][azaGly]L[Arg(Me)]W-NH2) | 3.4 |
| CNC(=N)NCCC[C@H](NC(=O)[C@H](CC(C)C)NC(=O)NNC(=O)[C@H](Cc1cccc(F)c1)NC(=O)[C@@H](NC(=O)[C@H](CC(N)=O)NC(=O)CNC(=O)[C@@H](Cc1ccc(O)cc1)NC(C)=O)[C@@H](C)O)C(=O)N[C@@H](Cc1c[nH]c2ccccc12)C(N)=O [Compound No. 785, Ac-D-Tyr-Gly-Asn-Thr-Phe(3F)-AzaGly-Leu-Arg(Me)-Trp-NH2] (Ac-[dY]GNT[Phe(3-F)][azaGly]L[Arg(Me)]W-NH2) | 3.2 |
